The values that follow come from patent US10625229B2, “Device for preparing nano-carbon urea” (BEIJING NANO HI-TECH MATERIAL CO., LTD., priority 2016, dated 2020).

The subject of assay [1] is corn. Briefly: Field experiment on application of nano-carbon urea in corn (2016, Inner Mongolia). It counts as in vivo, corn variety Simon 568. As to conditions: Pure N 20 kg/a unit of area (no nitrogen reduction). The text has this: The results of the experiment on the application of nano-carbon urea by bimeng academy of agricultural sciences in Inner Mongolia in 2016 are as follows: Nano-carbon urea is provided by the invention containing 46% nitrogen, and the amount of nano-carbon sol added is 10% of fertilizer weight, color: grey. Corn variety: Simon 568 Test site: Garden Canal Test Station of Agriculture and Animal Husbandry Science Research Institute, Bayannur City Random plot arrangement, 5 treatments, four repeats, […], mulch planting.

For assay [2], the system named is soybean. Briefly: Soybean potted test of nano urea (Heilongjiang). The format is in vivo. Particulars: urea 10.8 g per pot (full dosage), 3 plants per pot. The text has this:
Soybean Experiment in Heilongjiang Agricultural Academy Test site: Heilongjiang Academy of Agricultural Sciences Laboratory Entrusted unit: Plant Nutrition and Environment Institute of Heilongjiang Agricultural Academy To determine the application effect and nitrogen utilization rate of nano-fertilizer on soybean and rice. Nano urea (46-0-0), calcium superphosphate (0-43-0), potassium sulfate (0-0-0-50), nano carbon sol content 0.57% solute, added amount is 10% of urea weight. Soybeans Potted Test There 3 plants per pot, repeat 6 times. N:P:K rating is 5:3.5:3, the results are as follows: […]

As for `NC(N)=O` [Common urea, urea], the “Yield kg/a unit of area” value in assay [1] is on record as 1002.98 kg/a unit of area. Moreover, the Average yield g/pot in assay [2] amounted to 50 g/pot.
